Settings: Week 16; <50% AEC reduction at Week 16

With CCCN[C@@H]1CCc2nc(N)sc2C1 [Dexpramipexole, (6R)-2-amino-4,5,6,7-tetrahydro-6-(propylamino)benzothiazole] the “Pre-BD FEF25-75 % change from baseline, Max” value was −3%, the “Pre-BD FEF25-75 % change from baseline, Mean ± SD” value was −14.5 ± 19.68% and the “Pre-BD FEF25-75 % change from baseline, Median” value was −5.5%. For the same molecule, the “Pre-BD FEF25-75 % change from baseline, Min” value was −44%, the “Pre-BD FEF25-75 % change from baseline, Q1” value was −25% and the “Pre-BD FEF25-75 % change from baseline, Q3” value was −4%. For the same molecule, the “Pre-BD FEF25-75 Observed, Max” value was 780 mL/s, the “Pre-BD FEF25-75 Observed, Mean ± SD” value was 505.0 ± 266.15 mL/s and the “Pre-BD FEF25-75 Observed, Median” value was 505.0 mL/s. The “Pre-BD FEF25-75 Observed, Min” value was 230 mL/s, the “Pre-BD FEF25-75 Observed, Q1” value was 280 mL/s and the “Pre-BD FEF25-75 Observed, Q3” value was 730 mL/s. The “Pre-BD FEF25-75 change from baseline, Max” value was -10 mL/s, the “Pre-BD FEF25-75 change from baseline, Mean ± SD” value was -170.0 ± 293.94 mL/s and the “Pre-BD FEF25-75 change from baseline, Median” value was -30.0 mL/s. For the same molecule, the “Pre-BD FEF25-75 change from baseline, Min” value was -610 mL/s, the “Pre-BD FEF25-75 change from baseline, Q1” value was -330 mL/s and the “Pre-BD FEF25-75 change from baseline, Q3” value was -10 mL/s. For the same molecule, the “Pre-BD FEV1 % change from baseline, Max” value was 3%, the “Pre-BD FEV1 % change from baseline, Mean ± SD” value was −11.4 ± 15.14% and the “Pre-BD FEV1 % change from baseline, Median” value was −8.5%. For the same molecule, the “Pre-BD FEV1 % change from baseline, Min” value was −32%, the “Pre-BD FEV1 % change from baseline, Q1” value was −22% and the “Pre-BD FEV1 % change from baseline, Q3” value was 0%. The “Pre-BD FEV1 Observed, Max” value was 1660 mL, the “Pre-BD FEV1 Observed, Mean ± SD” value was 1280.0 ± 399.67 mL and the “Pre-BD FEV1 Observed, Median” value was 1370.0 mL. The “Pre-BD FEV1 Observed, Min” value was 720 mL, the “Pre-BD FEV1 Observed, Q1” value was 1020 mL and the “Pre-BD FEV1 Observed, Q3” value was 1540 mL. For the same molecule, the “Pre-BD FEV1 change from baseline, Max” value was 50 mL, the “Pre-BD FEV1 change from baseline, Mean ± SD” value was -192.5 ± 318.58 mL and the “Pre-BD FEV1 change from baseline, Median” value was -80.0 mL. The “Pre-BD FEV1 change from baseline, Min” value was -660 mL, the “Pre-BD FEV1 change from baseline, Q1” value was -385 mL and the “Pre-BD FEV1 change from baseline, Q3” value was 0 mL. For the same molecule, the “Pre-BD FVC % change from baseline, Max” value was 3%, the “Pre-BD FVC % change from baseline, Mean ± SD” value was −3.2 ± 7.22% and the “Pre-BD FVC % change from baseline, Median” value was −2.0%. For the same molecule, the “Pre-BD FVC % change from baseline, Min” value was −12%, the “Pre-BD FVC % change from baseline, Q1” value was −9% and the “Pre-BD FVC % change from baseline, Q3” value was 3%. The “Pre-BD FVC Observed, Max” value was 3380 mL, the “Pre-BD FVC Observed, Mean ± SD” value was 2900.0 ± 503.26 mL and the “Pre-BD FVC Observed, Median” value was 2985.0 mL. For the same molecule, the “Pre-BD FVC Observed, Min” value was 2250 mL, the “Pre-BD FVC Observed, Q1” value was 2510 mL and the “Pre-BD FVC Observed, Q3” value was 3290 mL. For the same molecule, the “Pre-BD FVC change from baseline, Max” value was 80 mL, the “Pre-BD FVC change from baseline, Mean ± SD” value was -95.0 ± 203.55 mL and the “Pre-BD FVC change from baseline, Median” value was -80.0 mL. For the same molecule, the “Pre-BD FVC change from baseline, Min” value was -300 mL, the “Pre-BD FVC change from baseline, Q1” value was -270 mL and the “Pre-BD FVC change from baseline, Q3” value was 80 mL. For the same molecule, the “Pre-BD Peak Flow % change from baseline, Max” value was 930%, the “Pre-BD Peak Flow % change from baseline, Mean ± SD” value was 236.0 ± 462.72% and the “Pre-BD Peak Flow % change from baseline, Median” value was 8.1%. The “Pre-BD Peak Flow % change from baseline, Min” value was −2%, the “Pre-BD Peak Flow % change from baseline, Q1” value was 1% and the “Pre-BD Peak Flow % change from baseline, Q3” value was 471%. For the same molecule, the “Pre-BD Peak Flow Observed, Max” value was 412 L/min, the “Pre-BD Peak Flow Observed, Mean ± SD” value was 258.0 ± 118.14 L/min and the “Pre-BD Peak Flow Observed, Median” value was 248.0 L/min. The “Pre-BD Peak Flow Observed, Min” value was 124 L/min, the “Pre-BD Peak Flow Observed, Q1” value was 186 L/min and the “Pre-BD Peak Flow Observed, Q3” value was 331 L/min. The “Pre-BD Peak Flow change from baseline, Max” value was 372 L/min, the “Pre-BD Peak Flow change from baseline, Mean ± SD” value was 101.5 ± 180.70 L/min and the “Pre-BD Peak Flow change from baseline, Median” value was 18.5 L/min. The “Pre-BD Peak Flow change from baseline, Min” value was -3 L/min, the “Pre-BD Peak Flow change from baseline, Q1” value was 5 L/min and the “Pre-BD Peak Flow change from baseline, Q3” value was 199 L/min.

From US20250352520A1, “USE OF DEXPRAMIPEXOLE FOR THE TREATMENT OF EOSINOPHILIC COPD” (Areteia Therapeutics, Inc., priority 2024, published 2025)
